Calls of active or inactive are those of the source.
Tests used:
Fatty acid synthase [1] = molecular target: T1, Fatty acid synthase (Homo sapiens, UniProt P49327); assay: FAS thioesterase domain inhibitors, dose response, biochemical, endpoint fluorescence intensity, uHTS hits (AID 624327); format: functional;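 further: fluorescence from hydrolysis of an O-methyl fluorescein acyl ester substrate by the enzyme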
Fatty acid synthase [2] = molecular target: T1, Fatty acid synthase; assay: FAS thioesterase domain inhibitors, dose response, biochemical, kinetic fluorescence intensity (AID 624326); format: functional;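 further: rate of fluorescence rise from hydrolysis of a fluorogenic O-methyl fluorescein ester substrate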
[3] = Luminescence Cell-Based Dose Confirmation HTS to Identify Activators of 5'UTR Stem-Loop Driven Alpha-Synuclein mRNA Translation in H4 Neuroglioblastoma Cells. [Related pubchem assays: 1829 (Project Summary), 1814 (Primary HTS)]; format: functional
[4] = Luminescence Cell-Based Dose Response HTS to Identify Activators of Luciferase Translation or Activity in H4 […] Cells. [Related pubchem assays: 1829 (Project Summary), 1814 (Primary HTS)]; format: functional
H4 = assay: Luminescence Cell-Based Dose Response HTS to Identify Activators of 5'UTR Stem-Loop Driven Prion Protein mRNA Translation in H4 Neuroglioblastoma Cells. [Related pubchem assays: 1829 (Project Summary), 1814 (Primary HTS)]; format: functional; details: Homo sapiens
[5] = molecular target: T2, Corticotropin-releasing factor receptor 2/Corticotropin-releasing factor-binding protein (Homo sapiens, UniProt P24387+Q13324); assay: Dose Response confirmation of uHTS hits for small molecule antagonists of the CRF-binding protein and CRF-R2 receptor complex.; format: functional; details: read-out: IC50_Mean
T2 sequence (Q13324 whole entry): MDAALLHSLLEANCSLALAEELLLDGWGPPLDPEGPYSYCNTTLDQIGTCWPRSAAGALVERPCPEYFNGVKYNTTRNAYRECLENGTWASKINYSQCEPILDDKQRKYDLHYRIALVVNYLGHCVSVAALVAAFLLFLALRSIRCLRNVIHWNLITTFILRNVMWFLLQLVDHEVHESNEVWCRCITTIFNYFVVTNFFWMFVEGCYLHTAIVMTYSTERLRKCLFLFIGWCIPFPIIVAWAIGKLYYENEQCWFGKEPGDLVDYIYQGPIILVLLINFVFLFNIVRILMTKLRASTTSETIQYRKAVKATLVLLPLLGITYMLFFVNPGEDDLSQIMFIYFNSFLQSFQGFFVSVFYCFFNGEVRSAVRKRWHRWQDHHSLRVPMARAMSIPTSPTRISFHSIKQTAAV
T2 sequence (P24387 whole entry): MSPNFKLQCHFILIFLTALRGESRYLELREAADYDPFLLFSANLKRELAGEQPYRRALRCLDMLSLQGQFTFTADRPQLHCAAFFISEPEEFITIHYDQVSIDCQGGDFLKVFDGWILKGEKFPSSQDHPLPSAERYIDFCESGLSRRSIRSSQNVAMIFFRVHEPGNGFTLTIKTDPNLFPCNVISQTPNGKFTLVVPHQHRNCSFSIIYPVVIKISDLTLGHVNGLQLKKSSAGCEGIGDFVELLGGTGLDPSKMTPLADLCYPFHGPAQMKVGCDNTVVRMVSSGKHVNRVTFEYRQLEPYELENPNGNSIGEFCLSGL

[6] = molecular target: T2, Corticotropin-releasing factor receptor 2/Corticotropin-releasing factor-binding protein; assay: activators of CRF receptor 2 with binding protein – uHTS hits, confirmation (AID 602473); format: functional; details: read-out: EC50_Mean
Large T antigen = Large T antigen (Simian virus 40, UniProt P03070); format: functional, Betapolyomavirus macacae;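 further: Confirmatory-stage PubChem screen for compounds that inhibit SV40 T antigen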
Chain of Large T antigen (P03070 whole entry): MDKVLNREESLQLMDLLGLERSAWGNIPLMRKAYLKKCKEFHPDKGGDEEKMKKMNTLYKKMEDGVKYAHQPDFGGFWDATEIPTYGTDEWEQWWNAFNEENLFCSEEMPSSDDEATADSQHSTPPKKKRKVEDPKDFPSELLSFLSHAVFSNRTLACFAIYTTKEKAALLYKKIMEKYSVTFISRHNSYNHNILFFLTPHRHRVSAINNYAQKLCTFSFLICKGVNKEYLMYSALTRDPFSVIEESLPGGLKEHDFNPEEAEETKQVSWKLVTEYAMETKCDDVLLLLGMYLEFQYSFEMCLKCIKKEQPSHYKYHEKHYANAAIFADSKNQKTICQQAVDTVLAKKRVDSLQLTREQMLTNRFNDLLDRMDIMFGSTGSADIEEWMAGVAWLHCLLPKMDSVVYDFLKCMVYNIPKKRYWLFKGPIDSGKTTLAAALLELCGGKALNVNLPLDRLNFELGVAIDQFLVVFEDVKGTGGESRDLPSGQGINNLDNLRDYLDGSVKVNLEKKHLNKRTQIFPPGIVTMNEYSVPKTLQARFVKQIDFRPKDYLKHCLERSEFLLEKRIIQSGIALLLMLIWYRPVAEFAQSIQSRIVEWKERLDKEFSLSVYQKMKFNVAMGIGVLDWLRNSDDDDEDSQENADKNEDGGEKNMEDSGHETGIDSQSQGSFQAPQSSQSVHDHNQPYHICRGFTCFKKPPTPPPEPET

[7] = molecular target: T3, Heat shock factor protein 1 (Mus musculus, UniProt P38532); assay: HSF1 potentiators in luciferase reporter cells, confirmation, cell-based, NIH3T3, luminescence, dose retest (AID 435004); format: functional;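 further: stress induced by proteasome inhibitor MG132 added 30 min after compound; luciferase reporter driven by HSF1 response element in NIH3T3 cells; actives raise luminescence as potentiators of the MG132 stress response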
T3 sequence (P38532 whole entry): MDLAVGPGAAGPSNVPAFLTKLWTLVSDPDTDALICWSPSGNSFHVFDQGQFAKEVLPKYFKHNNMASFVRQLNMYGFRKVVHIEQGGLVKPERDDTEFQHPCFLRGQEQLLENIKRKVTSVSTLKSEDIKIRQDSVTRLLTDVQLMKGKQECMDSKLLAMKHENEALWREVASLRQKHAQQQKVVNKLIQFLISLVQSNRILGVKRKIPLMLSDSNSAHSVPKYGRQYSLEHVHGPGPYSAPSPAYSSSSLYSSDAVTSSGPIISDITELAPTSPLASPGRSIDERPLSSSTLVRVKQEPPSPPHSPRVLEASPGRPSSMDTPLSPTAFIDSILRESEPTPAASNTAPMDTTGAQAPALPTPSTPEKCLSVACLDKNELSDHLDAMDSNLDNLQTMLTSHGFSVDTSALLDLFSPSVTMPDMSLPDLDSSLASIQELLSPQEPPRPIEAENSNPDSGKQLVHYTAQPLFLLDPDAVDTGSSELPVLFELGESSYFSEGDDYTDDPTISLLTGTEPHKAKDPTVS

Genome polyprotein = Genome polyprotein (dengue virus type 2, UniProt P29990); assay: Dengue-2 NS5 methyltransferase inhibitors, primary screen, biochemical, confirmation dose response (AID 588689); format: functional
Chain of Genome polyprotein (P29990 2492-3391 limits assumed): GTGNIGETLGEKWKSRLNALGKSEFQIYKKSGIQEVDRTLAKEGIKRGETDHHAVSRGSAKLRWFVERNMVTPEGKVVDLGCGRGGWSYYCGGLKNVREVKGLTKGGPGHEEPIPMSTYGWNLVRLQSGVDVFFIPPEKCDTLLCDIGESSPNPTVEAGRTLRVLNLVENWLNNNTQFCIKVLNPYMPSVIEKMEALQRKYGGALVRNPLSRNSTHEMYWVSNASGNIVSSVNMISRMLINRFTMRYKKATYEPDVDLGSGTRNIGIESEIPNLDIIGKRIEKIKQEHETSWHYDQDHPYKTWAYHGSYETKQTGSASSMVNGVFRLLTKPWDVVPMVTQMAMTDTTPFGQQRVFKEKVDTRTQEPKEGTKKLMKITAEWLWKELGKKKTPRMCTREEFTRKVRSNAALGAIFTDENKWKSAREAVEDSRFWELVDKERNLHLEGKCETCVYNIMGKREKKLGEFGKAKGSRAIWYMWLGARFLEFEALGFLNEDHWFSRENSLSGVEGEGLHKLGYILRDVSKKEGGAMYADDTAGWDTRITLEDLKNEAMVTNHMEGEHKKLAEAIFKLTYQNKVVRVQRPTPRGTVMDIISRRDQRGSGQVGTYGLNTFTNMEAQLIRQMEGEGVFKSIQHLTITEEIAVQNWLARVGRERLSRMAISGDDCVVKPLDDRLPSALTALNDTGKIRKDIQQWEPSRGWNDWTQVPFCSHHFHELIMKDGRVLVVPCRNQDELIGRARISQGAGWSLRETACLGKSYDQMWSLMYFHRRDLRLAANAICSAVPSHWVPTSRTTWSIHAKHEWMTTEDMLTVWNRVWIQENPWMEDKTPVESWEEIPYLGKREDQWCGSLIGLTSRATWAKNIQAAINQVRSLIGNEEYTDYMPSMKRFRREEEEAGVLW

[8] = P. falciparum Dd2 growth inhibitors, dose response, SYBR Green, cherry-picked samples (AID 1159567); format: functional, cell-based
[9] = tested on: Streptococcus sp. 'group A'; assay: growth inhibition of control SK(-) GAS strain, dose response, counter-screen for streptokinase expression inhibitor project, luminescence, kanamycin, BacTiterGlo, confirmation (AID 1900); format: functional, organism-based
[10] = molecular target: T3, Heat shock factor protein 1; assay: inhibition of MG132-induced HSE-luciferase signal, confirmation, cell-based, NIH3T3, luminescence, dose retest (AID 2382); format: functional;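 further: NIH3T3 fibroblasts with HSF1-driven luciferase reporter stressed by proteasome inhibitor MG132; luminescence from HSF1-driven luciferase expression after 8 hours of MG132 stress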
[11] = molecular target: T4, Calpain-2 catalytic subunit (Sus scrofa, UniProt P43367); assay: pig calpain II inhibitor potency, dose response, biochemical, fluorogenic peptide substrate (AID 1420); format: functional
T4 sequence (P43367 whole entry): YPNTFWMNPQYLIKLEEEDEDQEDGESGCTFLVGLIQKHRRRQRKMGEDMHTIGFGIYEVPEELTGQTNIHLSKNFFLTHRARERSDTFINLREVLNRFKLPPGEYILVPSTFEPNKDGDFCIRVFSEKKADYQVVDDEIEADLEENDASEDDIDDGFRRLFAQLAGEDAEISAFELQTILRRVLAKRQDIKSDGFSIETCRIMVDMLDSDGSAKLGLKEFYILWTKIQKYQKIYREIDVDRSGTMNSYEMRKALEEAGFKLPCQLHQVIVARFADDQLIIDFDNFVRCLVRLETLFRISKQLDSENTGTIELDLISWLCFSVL

Streptococcus = assay: Group A Streptococcus viability loss, dose response, counter-screen for streptokinase expression inhibitor project, luminescence, BacTiterGlo (AID 1915); format: functional, organism-based;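 further: potency for reduction of bacterial viability or growth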
Cytochrome P450 2C19 = Cytochrome P450 2C19 (Homo sapiens, UniProt P33261); assay: Cytochrome panel assay with activity outcomes. Panel member name: p450-cyp2c19 Compounds with AC50 equal or less than 10 uM are considered active; format: functional; details: read-out: AC50
Chain of Cytochrome P450 2C19 (P33261 whole entry, the tested form may be a part): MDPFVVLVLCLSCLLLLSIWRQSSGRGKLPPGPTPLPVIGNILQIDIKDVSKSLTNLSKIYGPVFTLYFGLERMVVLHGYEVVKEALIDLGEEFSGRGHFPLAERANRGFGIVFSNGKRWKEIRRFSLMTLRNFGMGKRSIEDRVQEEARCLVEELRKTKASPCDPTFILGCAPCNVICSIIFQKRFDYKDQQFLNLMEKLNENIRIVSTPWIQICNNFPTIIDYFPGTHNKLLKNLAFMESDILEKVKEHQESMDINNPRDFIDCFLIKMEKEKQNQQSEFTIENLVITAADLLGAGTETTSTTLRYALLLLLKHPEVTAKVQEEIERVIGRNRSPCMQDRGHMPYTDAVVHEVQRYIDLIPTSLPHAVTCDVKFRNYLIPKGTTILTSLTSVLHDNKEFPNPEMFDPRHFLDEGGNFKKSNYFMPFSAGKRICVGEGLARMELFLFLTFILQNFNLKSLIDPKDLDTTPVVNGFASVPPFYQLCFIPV

[12] = molecular target: T5, Carboxy-terminal domain RNA polymerase II polypeptide A small phosphatase 1 (Homo sapiens, UniProt Q9GZU7); assay: inhibitors of CTDSP1, concentration-response testing, biochemical assay, absorbance-based, actives from ultra-high-throughput screening (AID 540297); format: functional
T5 sequence (Q9GZU7 whole entry): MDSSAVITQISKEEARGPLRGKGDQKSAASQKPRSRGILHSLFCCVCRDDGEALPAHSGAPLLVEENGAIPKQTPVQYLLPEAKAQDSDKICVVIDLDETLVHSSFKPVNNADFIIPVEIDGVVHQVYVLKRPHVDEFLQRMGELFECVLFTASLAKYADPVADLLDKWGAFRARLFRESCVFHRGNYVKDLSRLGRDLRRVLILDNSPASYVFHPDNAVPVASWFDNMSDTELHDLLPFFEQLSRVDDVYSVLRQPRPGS

Cytochrome P450 3A4 = Cytochrome P450 3A4 (Homo sapiens, UniProt P08684);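 further: CYP3A4 tested as one member of a cytochrome P450 panel screen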
Chain of Cytochrome P450 3A4 (P08684 whole entry): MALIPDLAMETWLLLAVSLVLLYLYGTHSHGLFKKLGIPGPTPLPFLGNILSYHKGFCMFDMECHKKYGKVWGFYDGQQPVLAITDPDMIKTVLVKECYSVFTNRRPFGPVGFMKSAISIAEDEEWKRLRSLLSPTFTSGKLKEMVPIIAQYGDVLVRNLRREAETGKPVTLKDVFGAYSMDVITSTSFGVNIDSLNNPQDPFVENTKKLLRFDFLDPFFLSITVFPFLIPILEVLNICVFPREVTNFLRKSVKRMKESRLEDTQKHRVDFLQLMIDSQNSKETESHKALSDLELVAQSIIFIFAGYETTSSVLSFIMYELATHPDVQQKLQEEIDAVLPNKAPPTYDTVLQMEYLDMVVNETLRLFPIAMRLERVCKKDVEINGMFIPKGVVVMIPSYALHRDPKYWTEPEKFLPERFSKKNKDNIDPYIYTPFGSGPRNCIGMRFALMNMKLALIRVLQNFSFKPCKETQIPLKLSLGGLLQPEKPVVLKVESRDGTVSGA

T1 sequence (P49327 whole entry, the tested form may be a part): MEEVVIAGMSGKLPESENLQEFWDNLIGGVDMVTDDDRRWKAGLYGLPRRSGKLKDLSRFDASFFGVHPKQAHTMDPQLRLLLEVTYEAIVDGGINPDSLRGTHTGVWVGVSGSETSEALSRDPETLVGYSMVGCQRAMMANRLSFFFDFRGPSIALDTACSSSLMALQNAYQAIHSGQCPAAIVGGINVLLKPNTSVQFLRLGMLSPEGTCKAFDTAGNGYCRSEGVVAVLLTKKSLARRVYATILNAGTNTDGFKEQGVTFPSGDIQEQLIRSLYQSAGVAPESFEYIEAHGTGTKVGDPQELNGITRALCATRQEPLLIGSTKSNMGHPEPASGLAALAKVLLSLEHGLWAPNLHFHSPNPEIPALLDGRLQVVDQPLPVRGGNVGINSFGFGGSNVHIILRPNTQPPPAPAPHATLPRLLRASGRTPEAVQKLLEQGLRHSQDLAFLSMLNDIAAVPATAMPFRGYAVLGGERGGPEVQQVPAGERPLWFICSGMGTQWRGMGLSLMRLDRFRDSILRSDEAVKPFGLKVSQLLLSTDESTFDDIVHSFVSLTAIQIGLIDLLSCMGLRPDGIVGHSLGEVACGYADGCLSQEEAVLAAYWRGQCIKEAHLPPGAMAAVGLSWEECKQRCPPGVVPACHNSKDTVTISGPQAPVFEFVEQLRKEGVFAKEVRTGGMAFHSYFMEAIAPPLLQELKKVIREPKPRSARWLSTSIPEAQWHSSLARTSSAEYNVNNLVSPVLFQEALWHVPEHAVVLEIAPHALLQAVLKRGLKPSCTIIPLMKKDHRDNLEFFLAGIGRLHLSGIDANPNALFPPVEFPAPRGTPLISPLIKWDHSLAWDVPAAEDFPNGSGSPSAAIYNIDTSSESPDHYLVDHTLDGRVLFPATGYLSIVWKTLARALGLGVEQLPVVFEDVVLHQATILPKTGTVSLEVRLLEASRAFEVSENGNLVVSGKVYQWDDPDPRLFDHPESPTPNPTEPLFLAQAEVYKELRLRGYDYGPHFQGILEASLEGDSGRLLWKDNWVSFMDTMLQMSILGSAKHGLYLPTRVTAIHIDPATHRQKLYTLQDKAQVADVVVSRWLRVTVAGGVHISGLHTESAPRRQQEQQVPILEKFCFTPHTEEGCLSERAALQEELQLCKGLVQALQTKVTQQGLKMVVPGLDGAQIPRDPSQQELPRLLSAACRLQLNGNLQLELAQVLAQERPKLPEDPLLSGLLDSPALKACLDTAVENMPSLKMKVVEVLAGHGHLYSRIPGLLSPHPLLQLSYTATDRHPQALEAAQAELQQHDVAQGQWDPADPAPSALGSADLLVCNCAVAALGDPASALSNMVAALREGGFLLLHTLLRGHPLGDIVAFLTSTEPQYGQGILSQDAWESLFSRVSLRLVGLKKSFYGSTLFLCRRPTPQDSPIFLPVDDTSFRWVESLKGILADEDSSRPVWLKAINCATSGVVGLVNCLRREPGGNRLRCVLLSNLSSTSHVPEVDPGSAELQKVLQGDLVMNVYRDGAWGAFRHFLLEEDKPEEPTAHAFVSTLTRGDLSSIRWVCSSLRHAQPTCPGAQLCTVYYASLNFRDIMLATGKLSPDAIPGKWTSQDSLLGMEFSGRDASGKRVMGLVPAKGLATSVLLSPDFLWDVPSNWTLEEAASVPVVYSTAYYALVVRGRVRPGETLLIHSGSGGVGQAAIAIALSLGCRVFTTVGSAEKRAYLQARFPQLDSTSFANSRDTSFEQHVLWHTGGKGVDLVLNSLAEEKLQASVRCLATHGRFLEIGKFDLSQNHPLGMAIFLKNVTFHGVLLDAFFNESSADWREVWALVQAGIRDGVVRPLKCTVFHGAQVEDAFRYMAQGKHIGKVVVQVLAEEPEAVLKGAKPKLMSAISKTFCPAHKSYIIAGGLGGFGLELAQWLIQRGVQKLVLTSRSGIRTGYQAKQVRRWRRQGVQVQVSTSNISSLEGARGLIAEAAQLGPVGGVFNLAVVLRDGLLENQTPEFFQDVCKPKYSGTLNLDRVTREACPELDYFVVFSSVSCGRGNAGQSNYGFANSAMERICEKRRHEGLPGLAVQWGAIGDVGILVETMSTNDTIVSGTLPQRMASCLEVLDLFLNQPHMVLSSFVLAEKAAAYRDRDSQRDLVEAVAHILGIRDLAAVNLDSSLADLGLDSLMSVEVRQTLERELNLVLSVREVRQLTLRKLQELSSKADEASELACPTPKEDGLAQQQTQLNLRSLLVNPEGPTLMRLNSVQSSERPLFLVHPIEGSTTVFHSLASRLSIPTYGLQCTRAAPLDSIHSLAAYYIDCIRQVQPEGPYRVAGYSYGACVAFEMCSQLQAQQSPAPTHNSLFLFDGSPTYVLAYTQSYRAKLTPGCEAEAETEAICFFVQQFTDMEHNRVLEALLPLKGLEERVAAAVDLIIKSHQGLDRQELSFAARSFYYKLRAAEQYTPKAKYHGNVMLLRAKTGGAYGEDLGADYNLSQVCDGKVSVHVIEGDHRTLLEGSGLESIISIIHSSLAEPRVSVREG

SMILES	IC50 (Fatty acid synthase [1])	IC50 (Fatty acid synthase [2])	EC50 [3]	EC50 [4]	EC50 (H4)	further results
COc1ccc([N+](=O)[O-])cc1NC(=O)C(C)NNC(=O)c1cccc([N+](=O)[O-])c1 (stereo not given)	12.7 µM (active)	10.7 µM (active)				
O=C(CSc1nnnn1-c1ccc(Cl)cc1)NC(=O)Nc1ccc2c(c1)OCCO2			> 120 µM (not active)	45.7 µM (active)	10.1 µM (active)	
CCCC12CN(C(=O)c3ccc([N+](=O)[O-])cc3)CC(C)(CN(C(=O)c3ccc([N+](=O)[O-])cc3)C1)C2=O	9.85 µM (active)	12.9 µM (active)				IC50 [5]: > 47.1 µM (inactive); EC50 [6]: > 53 µM (inactive)
O=C(CS(=O)(=O)c1ccccc1)c1cc2cc(F)ccc2oc1=O						IC50 (Large T antigen): 62.8 µM (active); EC50 [7]: > 260 µM (inactive); IC50 (Genome polyprotein): > 100 µM (active)
O=C1/C(=C/Nc2cccc(O)c2)c2ccccc2C(=O)N1c1ccc2c(c1)OCO2			> 120 µM (not active)	> 120 µM (not active)	> 120 µM (not active)	
COc1ccc(CN2CC3(CN(C(=O)Cc4ccccc4)C3)c3c([nH]c4cc(OC)ccc34)[C@H]2CO)cc1						AC50 [8]: 6.52 µM (active)
O=C(O)c1cccc(N/N=C/C2=C(Cl)c3cc(Cl)ccc3SC2)c1						EC50 [9]: 2.48 µM (active); EC50 [10]: > 195 µM (not active); IC50 [11]: 2.38 µM (not active); EC50 (Streptococcus): 6.65 µM (active)
CCc1ccc(NC(=O)C[S+]([O-])CC(=O)NCCCc2ccccc2)cc1 (stereo not given)						AC50 (Cytochrome P450 2C19): 11.2 µM (inconclusive); IC50 [12]: 7.62 µM (active); AC50 (Cytochrome P450 3A4): 2.82 µM (inconclusive)
O=[N+]([O-])c1ccc(-c2c[nH]c(SCc3ccccc3Cl)n2)cc1			> 120 µM (not active)	18.9 µM (active)	17.5 µM (active)	
C[N+]1(C)CCc2cc3c(cc2[C@H]1[C@@H]1OC(=O)c2c1ccc1c2OCO1)OCO3						IC50 [12]: 3.48 µM (active)
COc1cccc(/C=C2\Oc3cc(OCC(=O)N4Cc5ccccc5C[C@H]4C(=O)O)ccc3C2=O)c1						IC50 (Genome polyprotein): 43.4 µM (active)
COc1ccc(OC)c(S(=O)(=O)ON2C(=O)c3ccccc3C2=O)c1	3.72 µM (active)	3.19 µM (active)	> 120 µM (not active)	> 120 µM (not active)	> 120 µM (not active)	
C=CCn1c(=S)[nH]c2cc(C(=O)N3CCN(c4ccccc4OC)CC3)ccc2c1=O	17.6 µM (active)	32.9 µM (inactive)				

Source: ChEMBL document CHEMBL1201862, “PubChem BioAssay data set” (2004)
